Laboratory results taken from patent US4361570A (Istituto Luso Farmaco D'Italia S.p.A., priority 1980, dated 1982).
Where two headings read alike, the source gives them in different places.

Legend:
[1] = system: lacticacidaemia; settings: for lactate level: control animals 5.1±0.59 mM/l
Procedure: The resulting lactate levels are 2.9±0.8 mM/l with modality "A" and 1.37±0.01 mM/l with modality "B", respectively.
The control animals show a lacticacidaemia level of 5.1±0.59 mM/l.

[2] = system: lacticacidaemia; settings: for lacticacidaemia, basal / lacticacidaemia, after 15 minutes / lacticacidaemia, after 10 minutes / lacticacidaemia, immediately after stress: 2300 mg in 250 ml venous infusion
Procedure: All the patients are being treated with insulin and are in a metabolic compensation.
The trials are performed on double-blind conditions. Each patient is subjected to an isometric stress test at 50% of its maximum ability for one minute.
The samples for measuring the lacticacidaemia are taken from the same arm performing the muscular stress.

[3] = Rat
[4] = Mouse
[5] = Rabbit, i.v.
[6] = 400 mg/kg/os, rats, six months
[7] = rats
[8] = 920 mg/kg/i.m., dog
[9] = pregnant rabbit
[10] = pregnant rat
[11] = system: blood lactic acid
[12] = system: homogenized liver and brain; settings: in vitro, Warburg apparatus, French Pat. No. 6453 M; cited from earlier work
[13] = system: hyperlacticacidaemia; test: Lacticacidaemia in cyrrhotic patients having hyperlacticacidaemia (double blind); settings: venous 2300 mg in 250 ml, 25 cyrrhotic patients
[14] = system: maximal aerobic capacity; blood lactate; test: Maximal aerobic capacity and blood lactate at work loads in trained non-athletic individuals
[15] = system: lacticacidaemia; settings: known effect of metformin; cited from earlier work

With `Cc1ncc(CO)c(CO)c1O.O=C(O)CCC(=O)C(=O)O` [PAK] the decrease of lacticacidaemia ([1]; modality "A" and modality "B", with metformin) was “notable decrease of lacticacidaemia”, the lactate level ([1]; modality "A": PAK 25 mg/h venous infusion contemporaneously with metformin (300 mg/i.d.)) was 2.9±0.8 mM/l and the lactate level ([1]; modality "B": PAK 25 mg/h venous infusion three hours after metformin (300 mg/i.d.)) was 1.37±0.01 mM/l. For the same compound, the duration of effect ([2]; analysis of the variance) was “protracted in time”, the “reduction of lacticacidaemia after stress” value ([2]; analysis of the variance) was “faster with PAK” and the “increase of lacticacidaemia by stress with respect to physiological solution” value ([2]; analysis of the variance, p<0.01) was “lower with respect to physiological solution”. The “lacticacidaemia, basal” value ([2]; sequence (a) physiological solution/PAK, physiological solution 0.88 ± 0.19) was 0.94 ± 0.20, the “lacticacidaemia, after 15 minutes” value ([2]; sequence (a) physiological solution/PAK, physiological solution 1.54 ± 0.30) was 1.18 ± 0.30 and the “lacticacidaemia, after 10 minutes” value ([2]; sequence (a) physiological solution/PAK, physiological solution 1.73 ± 0.35) was 1.60 ± 0.30. For the same compound, the “lacticacidaemia, immediately after stress” value ([2]; sequence (a) physiological solution/PAK, physiological solution 3.12 ± 0.46) was 2.62 ± 0.38, the “lacticacidaemia, basal” value ([2]; sequence (b) PAK/physiological solution, physiological solution 0.93 ± 0.19) was 0.88 ± 0.16 and the “lacticacidaemia, after 15 minutes” value ([2]; sequence (b) PAK/physiological solution, physiological solution 1.25 ± 0.40) was 1.11 ± 0.29. For the same compound, the “lacticacidaemia, after 10 minutes” value ([2]; sequence (b) PAK/physiological solution, physiological solution 1.43 ± 0.44) was 1.30 ± 0.33, the “lacticacidaemia, immediately after stress” value ([2]; sequence (b) PAK/physiological solution, physiological solution 2.08 ± 0.49) was 2.03 ± 0.47 and the LD50 ([3]; i.m.) was 2329 mg/kg. The LD50 ([3]; i.p.) was 1704 mg/kg, the LD50 ([3]; i.v.) was 588 mg/kg and the LD50 ([3]; os) was 4800 mg/kg. It also gave an LD50 ([4]; i.m.) of 2472 mg/kg, an LD50 ([4]; i.p.) of 1590 mg/kg and an LD50 ([4]; i.v.) of 496 mg/kg. For the same compound, the LD50 ([4]; os) was 5600 mg/kg, the LD50 [5] was 1050 mg/kg and the Chronic toxicity [6] was “does not cause any collateral nor toxic effect in the various organs”. The Systemic tolerability ([7]; 46 mg/kg/i.v.) was “well tolerated”, the Systemic tolerability ([7]; 460 mg/kg/i.m.) was “well tolerated” and the Systemic tolerability [8] was “well tolerated”. For the same compound, the Activity on gestation ([9]; 46 mg/kg/i.m.) was “does not cause any noxious effect in the pregnant female, on the gestation and on the embryo-fetal development”, the Activity on gestation ([9]; oral 1300 mg/kg) was “does not cause any noxious effect in the pregnant female, on the gestation and on the embryo-fetal development” and the Activity on gestation ([10]; 46 mg/kg/i.m.) was “does not cause any noxious effect in the pregnant female, on the gestation and on the embryo-fetal development”. The Activity on gestation ([10]; oral 1300 mg/kg) was “does not cause any noxious effect in the pregnant female, on the gestation and on the embryo-fetal development”, the “decrease in the formation of blood lactic acid” value ([11]; 2 g/100 kg of weight/day for 15 days, 5 trotters, trot) was “significant decrease” and the “basal lacticacidaemia after treatment” value ([11]; 2 g/100 kg/day for 15 days, before treatment 6.04 mg/100 ml) was 3.30 mg/100 ml. For the same compound, the “lacticacidaemia immediately after the stress, after treatment” value ([11]; 2 g/100 kg/day for 15 days, before treatment 29.41 mg/100 ml) was 15.94 mg/100 ml, the “oxygen consumption vs α-ketoglutaric acid or pyridoxine alone” value [12] was “markedly higher” and the “further increase of hyperlacticacidaemia” value [13] was “prevented its further increase”. The “reduction of hyperlacticacidaemia vs basal values and controls” value ([13]; p<0.01) was “statistically significant (p<0.01) reduction”, the “effect on half time (t 1/2) of La disappearance from blood during recovery” value ([14]; 30 mg/kg) was “unaffected” and the “increase of maximal aerobic capacity (VO2 max)” value ([14]; 30 mg/kg of body weight, p<0.005) was 6%. For the same compound, the “kinetics of the VO2 on-and-off responses” value ([14]; 30 mg/kg, onset and offset of a rectangular work load) was “not affected”, the “ΔLab, peak blood lactate concentration vs control group” value ([14]; 30 mg/kg, supermaximal running work load lasting 60 seconds, p<0.05) was -1.1 mmol·1^-1 and the “ΔLab, peak blood lactate concentration vs control group” value ([14]; 30 mg/kg, supermaximal running work load lasting 132±4 seconds, p<0.01) was under 2.7 mmol·1^-1.

For `CN(C)C(=N)N=C(N)N` [metformin], the lacticacidosis in rat [15] is given as “causes lacticacidosis”.
